Results published in US12350270B2, “Antimalarial agents” (Merck Sharp & Dohme LLC, priority 2019, dated 2025).

The compounds below were run on parasites (ring stage, in human red blood cell culture) (assay: Parasite LDH growth assay (antiparasite potency, Parasite Assay)). Conditions: 0.7% rings, 2% haematocrit, 72 hours at 37° C., LDH readout of parasite growth.
Type: cell-based, Plasmodium falciparum
Summary of the method: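 Growth was read by an LDH assay after a freeze–thaw cycle (−80 °C overnight, 4 h thaw at RT). Before that, parasites grew with compound for 72 h at 37 °C under gassed, humidified conditions. The input was a ring-stage culture adjusted to 0.7% parasitemia and 2% haematocrit in serum (5%)/albumax (0.5%)-supplemented RPMI-Hepes.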

| Compound | EC50 [nM] |
| --- | --- |
| COCC1(C)Oc2ccc(C(=O)N[C@@H]3c4ccccc4OC(C)(C)[C@H]3O)cc2C1N1C(=N)NC(C)(C)CC1=O (stereo partly drawn) [Example 256, N-[(3S,4R)-3-hydroxy-2,2-dimethyl-chroman-4-yl]-3-(2-imino-4,4-dimethyl-6-oxo-hexahydropyrimidin-1-yl)-2-(methoxymethyl)-2-methyl-3H-benzofuran-5-carboxamide] | 8.9 |
| COCC1(C)Oc2ccc(C(=O)N[C@@H]3c4ccccc4OC(C)(C)[C@H]3O)cc2C1N1C(=N)NC(C)(C)CC1=O (stereo partly drawn) [Example 257, N-[(3S,4R)-3-hydroxy-2,2-dimethyl-chroman-4-yl]-3-(2-imino-4,4-dimethyl-6-oxo-hexahydropyrimidin-1-yl)-2-(methoxymethyl)-2-methyl-3H-benzofuran-5-carboxamide] | 189 |
| CCOC(=O)C1(C)Oc2ccccc2C1NC(=O)c1ccc2c(c1)[C@H](N1C(=N)NC(CC)(CC)CC1=O)CCO2 (stereo partly drawn) [Example 275, ethyl 3-[[(4R)-4-(4,4-diethyl-2-imino-6-oxo-hexahydropyrimidin-1-yl)chromane-6-carbonyl]amino]-2-methyl-3H-benzofuran-2-carboxylate] | 25.7 |

Same assay, conditions: Plasmodium falciparum, Erythrocyte, 72 h, 0.7% rings, 2% haematocrit, 72 hours at 37° C., LDH readout of parasite growth

| Compound | EC50 [nM] |
| --- | --- |
| CCC1(CC)CC(=O)N([C@H]2c3cc(C(=O)N[C@@H]4c5ccccc5CC[C@H]4O)ccc3O[C@@]2(C)COC)C(=N)N1 [Example 249, (2R,3S)-3-(4,4-diethyl-2-imino-6-oxo-hexahydropyrimidin-1-yl)-N-[(1R,2R)-2-hydroxytetralin-1-yl]-2-(methoxymethyl)-2-methyl-3H-benzofuran-5-carboxamide] | 1.1 |
| CCC1(CC)CC(=O)N([C@H]2c3cc(C(=O)N[C@H]4c5ccccc5CC[C@@H]4O)ccc3O[C@@]2(C)COC)C(=N)N1 [Example 250, (2R,3S)-3-(4,4-diethyl-2-imino-6-oxo-hexahydropyrimidin-1-yl)-N-[(1S,2S)-2-hydroxytetralin-1-yl]-2-(methoxymethyl)-2-methyl-3H-benzofuran-5-carboxamide] | 219 |
| CC[C@]1(C)CC(=O)N([C@H]2c3cc(C(=O)N[C@@H]4c5ccccc5OC[C@@]4(C)O)ccc3OC[C@@H]2COC)C(=N)N1 [Example 252, (3S,4R)-4-[(4R)-4-ethyl-2-imino-4-methyl-6-oxo-hexahydropyrimidin-1-yl]-N-[(3S,4R)-3-hydroxy-3-methyl-chroman-4-yl]-3-(methoxymethyl)chromane-6-carboxamide] | 2.1 |
| CCC1(CC)CC(=O)N([C@H]2c3cc(C(=O)N[C@@H]4c5ccccc5OC[C@]4(C)O)ccc3OC[C@@H]2OC)C(=N)N1 [Example 253, (3R,4S)-4-(4,4-diethyl-2-imino-6-oxo-hexahydropyrimidin-1-yl)-N-[(3R,4R)-3-hydroxy-3-methyl-chroman-4-yl]-3-methoxy-chromane-6-carboxamide] | 4.3 |
| CCC1(CC)CC(=O)N([C@H]2c3cc(C(=O)N[C@@H]4c5ccccc5OC[C@@]4(C)O)ccc3OC[C@@H]2OC)C(=N)N1 [Example 254, (3R,4S)-4-(4,4-diethyl-2-imino-6-oxo-hexahydropyrimidin-1-yl)-N-[(3S,4R)-3-hydroxy-3-methyl-chroman-4-yl]-3-methoxy-chromane-6-carboxamide] | 3.4 |
| CC[C@]1(C)CC(=O)N([C@H]2c3cc(C(=O)N[C@@H]4c5ccccc5OC(C)(C)[C@H]4O)ccc3OC[C@@H]2OC)C(=N)N1 [Example 255, (3R,4S)-4-[(4R)-4-ethyl-2-imino-4-methyl-6-oxo-hexahydropyrimidin-1-yl]-N-[(3S,4R)-3-hydroxy-2,2-dimethyl-chroman-4-yl]-3-methoxy-chromane-6-carboxamide] | 3.3 |
| CCC1(CC)CC(=O)N([C@@H]2CCS(=O)(=O)c3ccc(C(=O)N[C@@H]4c5ccccc5C[C@@]4(C)O)cc32)C(=N)N1 [Example 260, (4R)-4-(4,4-diethyl-2-imino-6-oxo-hexahydropyrimidin-1-yl)-N-[(1R,2R)-2-hydroxy-2-methyl-indan-1-yl]-1,1-dioxo-3,4-dihydro-2H-thiochromene-6-carboxamide] | 8.2 |
| CCC1(CC)CC(=O)N([C@H]2CCS(=O)(=O)c3ccc(C(=O)N[C@@H]4c5ccccc5C[C@@]4(C)O)cc32)C(=N)N1 [Example 261, (4S)-4-(4,4-diethyl-2-imino-6-oxo-hexahydropyrimidin-1-yl)-N-[(1R,2R)-2-hydroxy-2-methyl-indan-1-yl]-1,1-dioxo-3,4-dihydro-2H-thiochromene-6-carboxamide] | 133 |
| CCC1(CC)CC(=O)N([C@@H]2CCS(=O)(=O)c3ccc(C(=O)N[C@@H]4c5ccccc5C[C@]4(C)O)cc32)C(=N)N1 [Example 262, (4R)-4-(4,4-diethyl-2-imino-6-oxo-hexahydropyrimidin-1-yl)-N-[(1R,2S)-2-hydroxy-2-methyl-indan-1-yl]-1,1-dioxo-3,4-dihydro-2H-thiochromene-6-carboxamide] | 7.4 |
| CCC1(CC)CC(=O)N([C@H]2CCS(=O)(=O)c3ccc(C(=O)N[C@@H]4c5ccccc5C[C@]4(C)O)cc32)C(=N)N1 [Example 263, (4S)-4-(4,4-diethyl-2-imino-6-oxo-hexahydropyrimidin-1-yl)-N-[(1R,2S)-2-hydroxy-2-methyl-indan-1-yl]-1,1-dioxo-3,4-dihydro-2H-thiochromene-6-carboxamide] | 74.8 |
| CCC1(CC)CC(=O)N([C@@H]2CCOc3ccc(C(=O)NC(CCc4ccccc4)c4ccccc4)cc32)C(=N)N1 (stereo partly drawn) [Example 264, (4R)-4-(4,4-diethyl-2-imino-6-oxo-hexahydropyrimidin-1-yl)-N-(1,3-diphenylpropyl)chromane-6-carboxamide] | 3.3 |
| CC1(C)CC(=O)N([C@@H]2CCS(=O)(=O)c3ccc(C(=O)N[C@@H]4c5ccccc5OC(C)(C)[C@H]4O)cc32)C(=N)N1 [Example 265, (4R)-N-[(3S,4R)-3-hydroxy-2,2-dimethyl-chroman-4-yl]-4-(2-imino-4,4-dimethyl-6-oxo-hexahydropyrimidin-1-yl)-1,1-dioxo-3,4-dihydro-2H-thiochromene-6-carboxamide] | 31.1 |
| CCC1(CC)CC(=O)N([C@@H]2CCOc3ccc(C(=O)N[C@@H]4c5cc(Cl)ccc5OC[C@@]4(C)O)cc32)C(=N)N1 [Example 266, (4R)-N-[(3S,4R)-6-chloro-3-hydroxy-3-methyl-chroman-4-yl]-4-(4,4-diethyl-2-imino-6-oxo-hexahydropyrimidin-1-yl)chromane-6-carboxamide] | 2.6 |
| CC[C@]1(C)CC(=O)N([C@@H]2CCOc3ccc(C(=O)N[C@@H]4C[C@@H](COC(F)F)Oc5ccccc54)cc32)C(=N)N1 [Example 267, (4R)-N-[(2S,4R)-2-(difluoromethoxymethyl)chro-man-4-yl]-4-[(4R)-4-ethyl-2-imino-4-methyl-6-oxo-hexahydropyrimidin-1-yl]chromane-6-carboxamide] | 24 |
| CC[C@]1(C)CC(=O)N([C@@H]2CCOc3ccc(C(=O)N[C@@H]4C[C@H](COC(F)F)Oc5ccccc54)cc32)C(=N)N1 [Example 268, (4R)-N-[(2R,4R)-2-(difluoromethoxymethyl)chro-man-4-yl]-4-[(4R)-4-ethyl-2-imino-4-methyl-6-oxo-hexahydropyrimidin-1-yl]chromane-6-carboxamide] | 25 |
| CC[C@]1(C)CC(=O)N([C@@H]2CCOc3ccc(C(=O)N[C@H]4C[C@H](COC(F)F)Oc5ccccc54)cc32)C(=N)N1 [Example 269, (4R)-N-[(2R,4S)-2-(difluoromethoxymethyl)chro-man-4-yl]-4-[(4R)-4-ethyl-2-imino-4-methyl-6-oxo-hexahydropyrimidin-1-yl]chromane-6-carboxamide] | 2.9 |
| CC[C@]1(C)CC(=O)N([C@@H]2CCOc3ccc(C(=O)N[C@H]4C[C@@H](COC(F)F)Oc5ccccc54)cc32)C(=N)N1 [Example 270, (4R)-N-[(2S,4S)-2-(difluoromethoxymethyl)chro-man-4-yl]-4-[(4R)-4-ethyl-2-imino-4-methyl-6-oxo-hexahydropyrimidin-1-yl]chromane-6-carboxamide] | 1.8 |
| CCC1(CC)CC(=O)N([C@@H]2CCOc3ccc(C(=O)NC4c5ccc(C(F)(F)F)cc5CC4N)cc32)C(=N)N1 (stereo partly drawn) [Example 271, (4R)-N-[2-amino-5-(trifluoromethyl)indan-1-yl]-4-(4,4-diethyl-2-imino-6-oxo-hexahydropyrimidin-1-yl)chromane-6-carboxamide] | 182 |
| CC1(C)CC(=O)N([C@@H]2CCOc3ccc(C(=O)N[C@@H]4c5cc(Cl)cc(Cl)c5OC[C@@]4(C)O)cc32)C(=N)N1 [Example 273, (4R)-N-[(3S,4R)-6,8-dichloro-3-hydroxy-3-methyl-chroman-4-yl]-4-(2-imino-4,4-dimethyl-6-oxo-hexahydropyrimidin-1-yl)chromane-6-carboxamide] | 7.8 |
| CCC1(CC)CC(=O)N(C2CC(C(=O)N(C)C)Oc3ccc(C(=O)N[C@@H]4c5ccccc5C[C@H]4O)cc32)C(=N)N1 (stereo partly drawn) [Example 274, 4-(4,4-diethyl-2-imino-6-oxo-hexahydropyrimidin-1-yl)-N6-[(1R,2R)-2-hydroxyindan-1-yl]-N2,N2-dimethyl-chromane-26,-dicarboxamide] | 98.5 |
| CCC1(CC)CC(=O)N([C@H]2c3cc(C(=O)N[C@@H]4c5ccccc5OC(C)(C)[C@H]4O)ccc3CC[C@@H]2OC)C(=N)N1 [Example 276, (3S,4S)-4-(4,4-diethyl-2-imino-6-oxo-hexahydropyrimidin-1-yl)-N-[(3S,4R)-3-hydroxy-2,2-dimethyl-chroman-4-yl]-3-methoxy-tetralin-6-carboxamide] | 0.6 |
| CCC1(CC)CC(=O)N([C@H]2c3cc(C(=O)N[C@@H]4c5ccccc5OC[C@]4(C)O)ccc3O[C@]2(C)COC)C(=N)N1 [Example 278, (2S,3S)-3-(4,4-diethyl-2-imino-6-oxo-hexahydropyrimidin-1-yl)-N-[(3R,4R)-3-hydroxy-3-methyl-chroman-4-yl]-2-(methoxymethyl)-2-methyl-3H-benzofuran-5-carboxamide] | 12.2 |
